Measurements taken from patent US20210238170A1, “5,5-Difluoro- and 5-Fluoro-5-Methyl-C-Glycoside Derivatives Useful As Dual SGLT1 / SGLT2 Modulators” (Janssen Pharmaceutica NV, priority 2018, published 2021).
Where two headings read alike, the source gives them in different places.

How the values were obtained:
human SGLT1 = molecular target: T1, human SGLT1 (Homo sapiens, UniProt P13866); experiment: SGLT1 in vitro assay: Na-dependent 14C-AMG uptake in CHO-K1 cells stably expressing human SGLT1; type: cell-based; conditions: for inhibition at 0.3 µM: read-out: SGLT1 % Inh @ 0.3 μM
T1 construct: expressed in transfected cells
T1 sequence (P13866 1-664): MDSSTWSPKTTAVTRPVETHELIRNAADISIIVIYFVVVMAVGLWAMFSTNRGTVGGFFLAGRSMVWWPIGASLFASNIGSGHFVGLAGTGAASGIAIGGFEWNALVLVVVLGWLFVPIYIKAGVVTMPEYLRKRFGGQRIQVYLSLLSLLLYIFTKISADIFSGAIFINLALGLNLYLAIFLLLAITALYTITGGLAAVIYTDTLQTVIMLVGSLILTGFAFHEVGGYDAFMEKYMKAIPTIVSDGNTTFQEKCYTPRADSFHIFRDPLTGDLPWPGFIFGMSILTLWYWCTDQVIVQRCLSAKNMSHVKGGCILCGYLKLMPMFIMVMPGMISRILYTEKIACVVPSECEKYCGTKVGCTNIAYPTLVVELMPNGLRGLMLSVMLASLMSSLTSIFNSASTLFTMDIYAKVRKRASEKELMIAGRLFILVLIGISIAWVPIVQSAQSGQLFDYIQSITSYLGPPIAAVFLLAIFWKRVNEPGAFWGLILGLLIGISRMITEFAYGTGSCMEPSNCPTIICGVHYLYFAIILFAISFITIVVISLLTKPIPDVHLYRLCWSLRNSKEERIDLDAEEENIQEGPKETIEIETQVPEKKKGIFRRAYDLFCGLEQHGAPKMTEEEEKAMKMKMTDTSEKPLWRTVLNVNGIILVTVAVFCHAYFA
Procedure, shortened: (§1)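 Sodium-dependent uptake of 14C-α-methyl-glucopyranoside ([…]) over 2 h at 37°C was counted by scintillation in stable human SGLT2- or SGLT1-CHO-K1 lines pretreated with 10 mM Na-butyrate. Compounds at 0.001–10 μM were preincubated for 10 min in pH 7.4 buffer with 137 mM NaCl; output is %-inhibition or IC50.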

human SGLT2 = molecular target: T2, human SGLT2 (Homo sapiens, UniProt P31639); experiment: SGLT2 in vitro assay: Na-dependent 14C-AMG uptake in CHO-K1 cells stably expressing human SGLT2; type: cell-based; conditions: for inhibition at 0.3 µM: read-out: SGLT2 % Inh @ 0.3 μM
T2 construct: expressed in transfected cells
T2 sequence (P31639 1-672): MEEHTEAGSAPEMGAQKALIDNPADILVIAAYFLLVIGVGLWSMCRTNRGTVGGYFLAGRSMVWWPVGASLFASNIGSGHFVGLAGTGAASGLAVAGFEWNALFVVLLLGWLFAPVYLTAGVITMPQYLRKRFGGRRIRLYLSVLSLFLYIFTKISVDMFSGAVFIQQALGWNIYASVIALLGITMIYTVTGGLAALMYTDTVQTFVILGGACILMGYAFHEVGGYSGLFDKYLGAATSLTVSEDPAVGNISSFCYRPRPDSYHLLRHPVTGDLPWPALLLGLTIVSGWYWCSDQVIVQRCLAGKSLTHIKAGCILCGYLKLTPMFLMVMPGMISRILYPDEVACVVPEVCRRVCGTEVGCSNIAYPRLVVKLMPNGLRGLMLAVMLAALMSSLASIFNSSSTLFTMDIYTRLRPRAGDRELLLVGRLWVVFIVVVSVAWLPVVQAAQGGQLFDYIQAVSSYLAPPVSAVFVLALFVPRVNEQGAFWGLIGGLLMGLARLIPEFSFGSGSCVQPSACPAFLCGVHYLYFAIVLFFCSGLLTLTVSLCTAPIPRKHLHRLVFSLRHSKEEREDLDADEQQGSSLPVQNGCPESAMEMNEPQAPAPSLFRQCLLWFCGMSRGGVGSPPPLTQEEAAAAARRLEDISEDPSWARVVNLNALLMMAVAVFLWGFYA
Procedure, shortened: as §1

[1] = 0.3 μM, CHO-K1 cells expressing human SGLT1
[2] = CHO-K1 cells expressing human SGLT1, 14C-AMG uptake
[3] = 0.3 μM, CHO-K1 cells expressing human SGLT2
[4] = CHO-K1 cells expressing human SGLT2, 14C-AMG uptake
[5] = @ 0.3 μM, CHO-K1 cells stably expressing human SGLT1, 14C-AMG uptake
[6] = CHO-K1 cells stably expressing human SGLT1, 14C-AMG uptake, compounds of formula (I) where R0 is fluoro
[7] = @ 0.3 μM, CHO-K1 cells stably expressing human SGLT2, 14C-AMG uptake
[8] = CHO-K1 cells stably expressing human SGLT2, 14C-AMG uptake, compounds of formula (I) where R0 is fluoro

Compound | inhibition at 0.3 µM (human SGLT1; [5]) [%] | IC50 (human SGLT1; [6]) [µM] | inhibition at 0.3 µM (human SGLT2; [7]) [%] | IC50 (human SGLT2; [8]) [µM] | SGLT1 % Inh @ 0.3 μM (human SGLT1; [5]) [%] | SGLT2 % Inh @ 0.3 μM (human SGLT2; [7]) [%] | also measured
C[C@]1(F)[C@H](O)[C@@H](O)[C@H](c2cc(Cc3cc4ccccc4s3)c(Cl)cc2O)O[C@@H]1CO [Compound 10, (2S,3R,4R,5S,6R)-2-[5-(benzothiophen-2-ylmethyl)-4-chloro-2-hydroxy-phenyl]-5-fluoro-6-(hydroxymethyl)-5-methyl-tetrahydropyran-3,4-diol] |  |  |  |  |  |  | inhibition at 0.3 µM (human SGLT1; [1]): 41.7%; IC50 (human SGLT1; [2]): 0.287 µM; inhibition at 0.3 µM (human SGLT2; [3]): 87.8%; IC50 (human SGLT2; [4]): 0.0102 µM
COc1cc(Cl)c(Cc2ccc(Cl)cc2)cc1[C@@H]1O[C@H](CO)C(F)(F)[C@H](O)[C@H]1O [Compound 168] | 43.2 | 0.175 | 77.6 | 0.0009 |  |  | 
CCc1cc(OC)c([C@@H]2O[C@H](CO)C(F)(F)[C@H](O)[C@H]2O)cc1Cc1ccc(OC(F)(F)F)cc1 [Compound 109] |  |  |  |  | 27.4 | 70.5 | 
CCc1cc(O)c([C@@H]2O[C@H](CO)[C@@](C)(F)[C@H](O)[C@H]2O)cc1Cc1ccc(OC)cc1 [Compound 16, (2S,3R,4R,5S,6R)-2-[4-ethyl-2-hydroxy-5-[(4-methoxyphenyl)methyl]phenyl]-5-fluoro-6-(hydroxymethyl)-5-methyl-tetrahydropyran-3,4-diol] |  |  |  |  |  |  | inhibition at 0.3 µM (human SGLT1; [1]): 53%; IC50 (human SGLT1; [2]): 0.151 µM; inhibition at 0.3 µM (human SGLT2; [3]): 85.5%; IC50 (human SGLT2; [4]): 0.002 µM
Cc1ccc(Cc2cc([C@@H]3O[C@H](CO)C(F)(F)[C@H](O)[C@H]3O)c(O)cc2Cl)cc1 [Compound 171, (2S,3R,4R,6R)-2-(4-chloro-2-hydroxy-5-(4-methylbenzyl)phenyl)-5,5-difluoro-6-(hydroxymethyl)-tetrahydro-2H-pyran-3,4-diol] | 86.4 | 0.012 | 82.4 | 0.0005 |  |  | 
CCc1ccc(Cc2cc([C@@H]3O[C@H](CO)C(F)(F)[C@H](O)[C@H]3O)c(OC)cc2C#N)cc1 [Compound 166] |  |  |  |  | 8.5 | 74.9 | 
CCc1ccc(Cc2cc([C@@H]3O[C@H](CO)C(F)(F)[C@H](O)[C@H]3O)c(O)cc2C)cc1 [Compound 131, (2S,3R,4R,6R)-2-(5-(4-ethylbenzyl)-2-hydroxy-4-methylphenyl)-5,5-difluoro-6-(hydroxymethyl)tetrahydro-2H-pyran-3,4-diol] | 64.4 | 0.096 | 88.6 | 0.0027 |  |  | 
COc1cc(C)c(Cc2ccc(OCF)cc2)cc1[C@@H]1O[C@H](CO)[C@@](C)(F)[C@H](O)[C@H]1O [Compound 24] |  |  |  |  |  |  | SGLT1 % Inh @ 0.3 μM (human SGLT1; [1]): 29.6%; SGLT2 % Inh @ 0.3 μM (human SGLT2; [3]): 77.1%
COc1cc(O)c([C@@H]2O[C@H](CO)C(F)(F)[C@H](O)[C@H]2O)cc1Cc1ccc(OC(F)(F)F)cc1 [Compound 119] |  |  |  |  | 24.9 | 79.0 | 
OC[C@H]1O[C@@H](c2cc(Cc3ccc4c(c3)OCC4)c(Cl)cc2O)[C@H](O)[C@@H](O)C1(F)F [Compound 111, (2S,3R,4R,6R)-2-(4-chloro-5-((2,3-dihydrobenzofuran-6-yl)methyl)-2-hydroxyphenyl)-5,5-difluoro-6-(hydroxymethyl)-tetrahydro-2H-pyran-3,4-diol] | 84 | 0.057 | 85.2 | 0.0009 |  |  | 
CCc1ccc(Cc2cc([C@@H]3O[C@H](CO)C(F)(F)[C@H](O)[C@H]3O)c(O)cc2C#N)cc1 [Compound 175] |  |  |  |  | 24.3 | 79.9 | 
Cc1cc(O)c([C@@H]2O[C@H](CO)C(F)(F)[C@H](O)[C@H]2O)cc1Cc1ccc(C2CC2)cc1 [Compound 124, (2S,3R,4R,6R)-2-(5-(4-cyclopropylbenzyl)-2-hydroxy-4-methylphenyl)-5,5-difluoro-6-(hydroxymethyl)-tetrahydro-2H-pyran-3,4-diol] | 75.5 | 0.158 | 90.3 | 0.001 |  |  | 
COc1cc(O)c([C@@H]2O[C@H](CO)C(F)(F)[C@H](O)[C@H]2O)cc1Cc1cc2ccccc2s1 [Compound 31, (2S,3R,4R,6R)-2-[5-(benzothiophen-2-ylmethyl)-2-hydroxy-4-methoxy-phenyl]-5,5-difluoro-6-(hydroxymethyl)tetrahydropyran-3,4-diol] |  | 0.165 |  | 0.0241 |  |  | 
CCc1csc(Cc2cc([C@@H]3O[C@H](CO)C(F)(F)[C@H](O)[C@H]3O)c(O)cc2C)c1 [Compound 182] | 60.2 | 0.04 | 83.6 | 0.0013 |  |  | 
COc1cc(C#N)c(Cc2ccc(C3CC3)cc2)cc1[C@@H]1O[C@H](CO)C(F)(F)[C@H](O)[C@H]1O [Compound 169] |  |  |  |  | 12.1 | 78.9 | 
Cc1ccc([C@@H]2O[C@H](CO)C(F)(F)[C@H](O)[C@H]2O)cc1Cc1cc2c(s1)CCN(C(=O)C1CCCC1)C2 [Compound 84] |  |  |  |  | 28.5 | 54.4 | 
CC(=O)N1CCc2sc(Cc3cc([C@@H]4O[C@H](CO)C(F)(F)[C@H](O)[C@H]4O)c(O)cc3Cl)cc2C1 [Compound 72] |  |  |  |  | 38.5 | 73.0 | 
COc1cc(Cl)c(Cc2ccc(Cl)s2)cc1[C@@H]1O[C@H](CO)C(F)(F)[C@H](O)[C@H]1O [Compound 172] |  |  |  |  | 40.4 | 79.9 | 
OC[C@H]1O[C@@H](c2cc(Cc3ccc4c(c3)CCO4)c(Cl)c3c2OCC3)[C@H](O)[C@@H](O)C1(F)F [Compound 114] |  |  |  |  | 36.8 | 80.6 | 
OC[C@H]1O[C@@H](c2cc(Cc3ccc(C4CC4)cc3)c(Cl)cc2O)[C@H](O)[C@@H](O)C1(F)F [Compound 136] | 68.7 | 0.138 | 90.9 | 0.0021 |  |  | 
CCc1cc(O)c([C@@H]2OC3(CC3)C(F)(F)[C@H](O)[C@H]2O)cc1Cc1ccc2c(c1)OCCO2 [Compound 94] | 73 | 0.066 | 87.8 | 0.0164 |  |  | 
Cc1cc(OC(C)C)c([C@@H]2O[C@H](CO)C(F)(F)[C@H](O)[C@H]2O)cc1Cc1cc2ccccc2s1 [Compound 42] |  |  |  |  | 8.9 | 74.3 | 
Cc1cc(O)c([C@@H]2O[C@H](CO)C(F)(F)[C@H](O)[C@H]2O)cc1Cc1ccc(-c2ccc(F)cc2)s1 [Compound 68] |  |  |  |  | 26.6 | 69.5 | 
CN(C)c1ccc(Cc2cc([C@@H]3O[C@H](CO)C(F)(F)[C@H](O)[C@H]3O)c(O)cc2C#N)cc1 [Compound 152] |  |  |  |  | 32.7 | 84.5 | 
CCc1ccc(Cc2cc([C@@H]3O[C@H](CO)C(F)(F)[C@H](O)[C@H]3O)cc3c2OCC3)cc1 [Compound 58] |  |  |  |  | 36.8 | 81.9 | 
COc1cc(Cl)c(Cc2cc3c(s2)CCN(C(C)=O)C3)cc1[C@@H]1O[C@H](CO)C(F)(F)[C@H](O)[C@H]1O [Compound 73] |  |  |  |  | 21.4 | 55.0 | 
